Values of other authors as cited in US5874104A, “Treatment of systemic fungal infections with phospholipid particles encapsulating polyene antibiotics” (NeXstar Pharmaceuticals, Inc., priority 1995, dated 1999).

What was measured:
patients = conditions: for Toxicity to cells of the patient: human, in vivo
renal tubules = conditions: mammals
[1] = saline as suspending solution; Jurgens et al.
host = conditions: in vivo

| Compound | Clinical toxicity (patients; at therapeutic dose levels) | Toxicity to cells of the patient (patients) | Toxicity for membrane systems (renal tubules) | Precipitation in saline [1] | Host toxicity of liposomal drug (host) |
| --- | --- | --- | --- | --- | --- |
| C[C@@H]1[C@H](O)[C@@H](C)/C=C/C=C/C=C/C=C/C=C/C=C/C=C/[C@H](O[C@@H]2O[C@H](C)[C@@H](O)[C@H](N)[C@@H]2O)C[C@@H]2O[C@](O)(C[C@@H](O)C[C@@H](O)[C@H](O)CC[C@@H](O)C[C@@H](O)CC(=O)O[C@H]1C)C[C@H](O)[C@H]2C(=O)O [amphotericin B] | acute hemolytic crisis and eventual kidney failure | acute and chronic toxicity | greater for certain membrane systems, such as the renal tubules | precipitation | – |
| liposomal Amphotericin B | – | – | – | – | decreased host toxicity |
| C[C@@H]1[C@H](O)[C@@H](C)/C=C/C=C/CC/C=C/C=C/C=C/C=C/C(O[C@H]2O[C@H](C)[C@@H](O)[C@H](N)[C@@H]2O)CC2O[C@](O)(CC(O)C(O)CCC(O)CC(O)CC(O)CC(=O)O[C@H]1C)CC(O)C2C(=O)O (stereo partly drawn) [nystatin] | – | acute and chronic toxicity | – | – | – |
